Results reported in patent US10221129B2, “Inhibitors of human immunodeficiency virus replication” (ViiV HEALTHCARE UK (NO.5) LIMITED, priority 2015, dated 2019).

What was measured:
[1] = Compound cytotoxicity, XTT-based colorimetric assay; type: cell-based; conditions: human, uninfected MT2 cells, day 4, XTT
Procedure: Compound cytotoxicity and the corresponding CC50 values were determined using the same protocol as described in the antiviral assay except that uninfected cells were used. Cytotoxicity was assessed on day 4 in uninfected MT2 cells by using a XTT (2,3-bis[2-Methoxy-4-nitro-5-sulfophenyl]-2H-tetrazolium-5-carboxyanilide inner salt)-based colorimetric assay (Sigma-Aldrich, St Louis, Mo.).

[2] = system: recombinant NL4-3 virus (nef section replaced with Renilla luciferase gene) in MT-2 cells; assay: HIV cell culture assay (antiviral activity, luciferase readout); type: cell-based
Procedure: HIV cell culture assay—MT-2 cells, 293T cells and the proviral DNA clone of NL4-3 virus were obtained from the NIH AIDS Research and Reference Reagent Program. MT-2 cells were propagated in RPMI 1640 media supplemented with 10% heat inactivated fetal bovine serum (FBS), 100 jag/ml penicillin G and up to 100 units/mL streptomycin. The 293T cells were propagated in DMEM media supplemented with 10% heat inactivated FBS, 100 μg/mL penicillin G and 100 μg/mL streptomycin. A recombinant NL4-3 proviral clone, in which a section of the nef gene was replaced with the Renilla luciferase gene, was used to make the reference virus used in these studies. The recombinant virus was prepared through transfection of the recombinant NL4-3 proviral clone into 293T cells using Transit-293 Transfection Reagent from Mirus Bio LLC (Madison, Wis.). Supernatant was harvested after 2-3 days and the amount of virus present was titered in MT-2 cells using luciferase enzyme activity as a marker by measuring luciferase enzyme activity. Luciferase was quantitated using the EnduRen Live Cell Substrate from Promega (Madison, Wis.). Antiviral activities of compounds toward the recombinant virus were quantified by measuring luciferase activity in MT-2 cells infected for 4-5 days with the recombinant virus in the presence of serial dilutions of the compound.
(Johnson V A, Byington R T. Infectivity Assay. In Techniques in HIV Research. ed. Aldovini A, Walker B D. 71-76. New York: Stockton Press. 1990).

[3] = Renilla, NL43, MT-2 cells infected for 4-5 days with recombinant NL4-3 Renilla luciferase virus

Compound | CC50 at 4 days [1] | EC50 [2, 3] | EC50 ([2]; MT-2 cells infected for 4-5 days with recombinant NL4-3 Renilla luciferase virus)
COc1ccc(N(C)C(=O)[C@H](Cc2ccccc2)NC(=O)NS(=O)(=O)NC(C)c2ncnn2C)cc1 (mixture of isomers) [JB-68] | > 100000 nM | 2370 nM | –
CN(C(=O)[C@H](Cc1cc(F)cc(F)c1)NC(=O)NS(=O)(=O)N(C)c1ccccn1)c1ccc2scnc2c1 [CA-113] | > 100000 nM | 140 nM | –
COc1ccc(N(C)C(=O)[C@H](Cc2ccccc2)NC(=O)NS(=O)(=O)n2ccc3cccnc32)cc1 [JB-77] | > 100000 nM | 450 nM | –
COc1ccc(N(C)C(=O)[C@H](Cc2ccccc2)NC(=O)NS(=O)(=O)Nc2cccc(F)c2)cc1 [CA-10] | > 100000 nM | 70 nM | –
CCc1ccc(N(C)C(=O)[C@H](Cc2cc(F)cc(F)c2)NC(=O)NS(=O)(=O)N(C)C)cn1 [GW-17] | > 100000 nM | 100 nM | –
CN(C(=O)[C@H](Cc1cc(F)cc(F)c1)NC(=O)NS(=O)(=O)N1CCc2cccnc21)c1ccc(Cl)cc1 [ZY-25] | 97100 nM | 30 nM | –
Cc1cnc(CNS(=O)(=O)NC(=O)N[C@@H](Cc2cc(F)cc(F)c2)C(=O)N(C)c2ccc3scnc3c2)cn1 [CA-150] | > 100000 nM | 460 nM | –
CCCc1ccc(N(C)C(=O)[C@H](Cc2cc(F)cc(F)c2)NC(=O)NS(=O)(=O)N2CCc3cccnc32)cc1 [BB-11] | 66300 nM | 10 nM | –
[2H]c1nc2cc(N(C)C(=O)[C@H](Cc3cc(F)cc(F)c3)NC(=O)NS(=O)(=O)N3CCc4cccnc43)ccc2s1 [GW-23] | > 10000 nM | 20 nM | –
COc1cccc(N(C)S(=O)(=O)NC(=O)N[C@@H](Cc2cc(F)cc(F)c2)C(=O)N(C)c2ccc3scnc3c2)c1 [CA-119] | > 33300 nM | 60 nM | –
COc1ccc(N(C)S(=O)(=O)NC(=O)N[C@@H](Cc2cc(F)cc(F)c2)C(=O)N(C)c2ccc3scnc3c2)cn1 [CA-118] | > 100000 nM | 160 nM | –
Cc1ccc(NS(=O)(=O)NC(=O)N[C@@H](Cc2cc(F)cc(F)c2)C(=O)N(C)c2ccc3scnc3c2)cc1 [ZY-10] | > 100000 nM | 50 nM | –
COc1ccc(N(C)C(=O)[C@H](Cc2ccccc2)NC(=O)NS(=O)(=O)Nc2cccc(OC)c2)cc1 [JB-20] | > 100000 nM | 100 nM | –
COc1ccc(N(C)C(=O)[C@H](Cc2ccccc2)NC(=O)NS(=O)(=O)Nc2ccc(Br)cc2)cc1 [CA-16] | > 100000 nM | 90 nM | –
COc1ccc(N(C)C(=O)[C@H](Cc2ccccc2)NC(=O)NS(=O)(=O)N(C)C(c2ccccc2)c2ccccc2)cc1 [JB-40] | 66500 nM | 2880 nM | –
CN(C(=O)[C@H](Cc1cc(F)cc(F)c1)NC(=O)NS(=O)(=O)N1CCc2cccnc21)c1ccc(Cl)c(C#N)c1 [BB-23] | > 100000 nM | 280 nM | –
COc1ccc(N(C)C(=O)[C@H](Cc2cc(F)cc(F)c2)NC(=O)NS(=O)(=O)N2CCC[C@@H]2C(=O)N(C)C)cc1 [BB-27] | > 100000 nM | 970 nM | –
CN(C)C(=O)[C@@H]1CCCN1S(=O)(=O)NC(=O)N[C@@H](Cc1cc(F)cc(F)c1)C(=O)N(C)c1ccc2scnc2c1 [BB-22] | > 100000 nM | 380 nM | –
COc1ccc(N(C)C(=O)[C@H](Cc2ccccc2)NC(=O)NS(=O)(=O)Nc2ccc(Cl)cc2)cc1 [JB-22] | > 100000 nM | 70 nM | –
COc1ccc(N(C)C(=O)[C@H](Cc2ccccc2)NC(=O)NS(=O)(=O)Nc2cccc(S(=O)(=O)N3CCOCC3)c2)cc1 [CA-47] | > 100000 nM | 2140 nM | –
COc1ccccc1N(C)S(=O)(=O)NC(=O)N[C@@H](Cc1ccccc1)C(=O)N(C)c1ccc2ncccc2c1 [JB-13] | > 33300 nM | 260 nM | –
COc1ccc(N(C)C(=O)[C@H](Cc2ccccc2)NC(=O)NS(=O)(=O)N2Cc3ccccc3S2(=O)=O)cc1 [JB-79] | > 100000 nM | 8610 nM | –
COc1ccc(N(C)C(=O)[C@H](Cc2ccccc2)NC(=O)NS(=O)(=O)Nc2ccccc2OC)cc1 [JB-16] | > 100000 nM | 170 nM | –
CN(C(=O)[C@H](Cc1cc(F)cc(F)c1)NC(=O)NS(=O)(=O)N1CCc2cccnc21)c1ccc2sc(=O)n(C)c2c1 [GW-19] | > 100000 nM | 60 nM | –
CN(C(=O)[C@H](Cc1cc(F)cc(F)c1)NC(=O)NS(=O)(=O)N1CCc2ccccc21)c1ccc2scnc2c1 [ZY-8] | 88000 nM | 20 nM | –

Compound | CC50 at 4 days [1] | EC50 [2, 3] | EC50 ([2]; MT-2 cells infected for 4-5 days with recombinant NL4-3 Renilla luciferase virus)
Cc1cc(N(C)C(=O)[C@H](Cc2cc(F)cc(F)c2)NC(=O)NS(=O)(=O)N2CCc3cccnc32)ccc1C#N [BB-15] | > 100000 nM | 460 nM | –
CN(C(=O)[C@H](Cc1cc(F)cc(F)c1)NC(=O)NS(=O)(=O)NCC(C)(C)C)c1ccc2scnc2c1 [CA-143] | > 100000 nM | 50 nM | –
COc1ccc(N(C)C(=O)[C@H](Cc2ccccc2)NC(=O)NS(=O)(=O)Nc2ccc(C(F)(F)F)cc2)cc1 [CA-28] | > 100000 nM | 50 nM | –
CN(C(=O)[C@H](Cc1cc(F)cc(F)c1)NC(=O)NS(=O)(=O)N1CCc2cccnc21)c1ccc(C(F)(F)F)nc1 [GW-9] | 35100 nM | 180 nM | –
CN(C(=O)[C@H](Cc1cc(F)cc(F)c1)NC(=O)NS(=O)(=O)N1CC(F)(F)C1)c1ccc2scnc2c1 [CA-130] | > 100000 nM | 450 nM | –
CN(C(=O)[C@H](Cc1ccccc1)NC(=O)NS(=O)(=O)Nc1ccccc1Cl)c1ccc2ncccc2c1 [JB-10] | > 100000 nM | 50 nM | –
COc1ccc(N(C)C(=O)[C@H](Cc2ccccc2)NC(=O)NS(=O)(=O)NC(C)c2cccc(C)n2)cc1 (stereo partly shown) [JB-58] | > 100000 nM | 690 nM | –
CN(C)C(=O)C1Cc2cccnc2N1S(=O)(=O)NC(=O)N[C@@H](Cc1cc(F)cc(F)c1)C(=O)N(C)c1ccc2scnc2c1 (single isomer, unassigned) [BB-28] | > 100000 nM | – | 6050 nM
COc1ccc(N(C)C(=O)[C@H](Cc2ccccc2)NC(=O)NS(=O)(=O)N2CCN(C)CC2c2ccccc2)cc1 (mixture of isomers) [JB-42] | > 100000 nM | 450 nM | –
COc1ccc(N(C)C(=O)[C@H](Cc2ccccc2)NC(=O)NS(=O)(=O)N(C)c2cccc(OC)c2)cc1 [JB-34] | > 100000 nM | 80 nM | –
COc1ccc(N(C)C(=O)[C@H](Cc2ccccc2)NC(=O)NS(=O)(=O)Nc2ccc3ccccc3c2)cc1 [CA-5] | > 33300 nM | 180 nM | –
COc1ccc(N(C)C(=O)[C@H](Cc2ccccc2)NC(=O)NS(=O)(=O)Nc2ccccc2C(F)(F)F)cc1 [CA-60] | > 100000 nM | 870 nM | –
CN(C(=O)[C@H](Cc1cc(F)cc(F)c1)NC(=O)NS(=O)(=O)N1CCc2cc(F)ccc21)c1ccc2scnc2c1 [ZY-12] | > 100000 nM | 110 nM | –
COc1ccc(N(C)C(=O)[C@H](Cc2ccccc2)NC(=O)NS(=O)(=O)N2CCc3cccnc32)cc1 [JB-31] | > 100000 nM | 140 nM | –
COc1ccc(N(C)C(=O)[C@H](Cc2ccccc2)NC(=O)NS(=O)(=O)NCC(=O)N(C)C)cc1 [CA-52] | > 100000 nM | 910 nM | –
CN(C(=O)[C@H](Cc1cc(F)cc(F)c1)NC(=O)NS(=O)(=O)N1CCC(Cc2ccccc2)CC1)c1ccc2scnc2c1 [CA-133] | 86400 nM | 720 nM | –
COc1ccc(N(C)C(=O)[C@H](Cc2cc(F)cc(F)c2)NC(=O)NS(=O)(=O)N2CCc3cccnc32)cc1 [BB-31] | > 33300 nM | 10 nM | –
COc1ccc(N(C)C(=O)[C@H](Cc2ccccc2)NC(=O)NS(=O)(=O)Nc2ccccc2-c2ccccc2)cc1 [CA-31] | > 33300 nM | 1170 nM | –
CN(C(=O)[C@H](Cc1cc(F)cc(F)c1)NC(=O)NS(=O)(=O)N1CCc2cccnc21)c1ccc2sc(=O)[nH]c2c1 [GW-5] | > 100000 nM | 320 nM | –
COc1ccc(N(C)C(=O)[C@H](Cc2ccccc2)NC(=O)NS(=O)(=O)Nc2ccc3c(c2)CCC3)cc1 [CA-11] | > 100000 nM | 70 nM | –
CN(C(=O)[C@H](Cc1cc(F)cc(F)c1)NC(=O)NS(=O)(=O)N1CCc2cccnc21)c1ccc(OC(F)(F)F)cc1 [GW-7] | 16800 nM | 30 nM | –
COc1ccc(N(C)C(=O)[C@H](Cc2ccccc2)NC(=O)NS(=O)(=O)NCc2nccn2C)cc1 [JB-63] | > 100000 nM | 6500 nM | –
COc1ccc(N(C)C(=O)[C@H](Cc2ccccc2)NC(=O)NS(=O)(=O)N(C)c2cccc(C)c2)cc1 [JB-25] | > 100000 nM | 80 nM | –
CN(C(=O)[C@H](Cc1cc(F)cc(F)c1)NC(=O)NS(=O)(=O)N1CCc2cccnc21)c1ccc(CC(F)F)cc1 [BB-24] | > 33300 nM | 10 nM | –
COc1ccc(N(C)C(=O)[C@H](Cc2ccccc2)NC(=O)NS(=O)(=O)Nc2cccc(C(N)=O)c2)cc1 [JB-61] | > 100000 nM | 4910 nM | –
